The values that follow come from PubChem BioAssay (NCI).

Test systems include SF-268 CNS; RXF 393 renal; KM12 colon; SW-620 colon; K-562 leukemia; HL-60(TB) leukemia; HCT-15 colon; MDA-MB-435; SNB-75 CNS.
Common to all, as to test: DTP human tumour cell line panel, 48 h

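Five concentrations, 48 hours, 96-well plates. TGI: total growth inhibition.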

With `CCOP(=O)(OCC)C(Nc1ccc(Br)cc1)c1cccc([N+](=O)[O-])c1` (stereo unspecified), the TGI (usually the concentration giving total growth inhibition) in the experiment on SF-268 CNS is 43.6 µM; in the experiment with RXF 393 renal, 31.5 µM; with KM12 colon, 32.1 µM; in the experiment with SW-620 colon, 35.4 µM; in the experiment on K-562 leukemia, 38.6 µM; in the experiment with HL-60(TB) leukemia, 55.1 µM. The TGI in the experiment with HCT-15 colon is 31.7 µM; with MDA-MB-435, 36.7 µM; with SNB-75 CNS, more than 100 µM.
On to `COc1cc(-c2cc(-c3ccccc3)nc(-c3c(OC)ccc4c(C)cc(=O)oc34)c2)cc(OC)c1OC`, for which the TGI with SF-268 CNS, in the experiment with RXF 393 renal, with KM12 colon, in the experiment on SW-620 colon, in the experiment on K-562 leukemia and in the experiment on HL-60(TB) leukemia was more than 100 µM each time. For the same compound, the concentration for total growth inhibition (TGI) in the experiment with HCT-15 colon, in the experiment with MDA-MB-435 and with SNB-75 CNS was more than 100 µM throughout.
Consider `CCCCc1ccc(Nc2nc(SC)c3[nH]cnc3n2)cc1`, for which the TGI is more than 100 µM with SF-268 CNS; more than 100 µM with RXF 393 renal; more than 100 µM in the experiment with KM12 colon; more than 100 µM with SW-620 colon; more than 31.3 µM in the experiment with K-562 leukemia; more than 46.4 µM with HL-60(TB) leukemia. Besides, the TGI in the experiment on HCT-15 colon, in the experiment on MDA-MB-435 and with SNB-75 CNS was more than 100 µM in each case.
`Brc1cc(CCOC2CCCCO2)c(-c2sccc2CCOC2CCCCO2)s1` (stereo unspecified): the TGI with SF-268 CNS was more than 100 µM; in the experiment on RXF 393 renal, 3 µM; in the experiment with KM12 colon, more than 100 µM; in the experiment with SW-620 colon it was more than 100 µM; in the experiment with K-562 leukemia, more than 31.6 µM; in the experiment with HL-60(TB) leukemia, 42.3 µM. For the same compound, the TGI in the experiment with HCT-15 colon, in the experiment on MDA-MB-435 and in the experiment on SNB-75 CNS was more than 100 µM in each case.
On to `CCN(CC)/C(Sc1ccccc1)=C(\C(Cl)=C(Cl)Cl)[N+](=O)[O-]`, for which the TGI was found to be 58.3 µM in the experiment on SF-268 CNS; 36.8 µM with RXF 393 renal; 36.3 µM in the experiment on KM12 colon; 40.3 µM in the experiment with SW-620 colon; 31.9 µM in the experiment with K-562 leukemia; 5.94 µM in the experiment on HL-60(TB) leukemia. Also, the TGI in the experiment on HCT-15 colon is 34.8 µM; with MDA-MB-435, 27.7 µM; in the experiment on SNB-75 CNS, 57.3 µM.
Consider `Cc1cccc(CP(Cc2cccc(C)c2)CC2(Cp3c4ccccc4c4ccccc43)COC2)c1`, for which the TGI is more than 100 µM in the experiment on SF-268 CNS; more than 100 µM with RXF 393 renal; more than 100 µM in the experiment on KM12 colon; more than 100 µM in the experiment with SW-620 colon; more than 100 µM in the experiment on K-562 leukemia; 2.78 µM with HL-60(TB) leukemia. Besides, the concentration for total growth inhibition (TGI) in the experiment with HCT-15 colon, in the experiment with MDA-MB-435 and in the experiment with SNB-75 CNS was more than 100 µM throughout.
On to `CCOP(=O)(OCC)C(C)(CC)N/C(=N/C(NC(C)=O)(C(F)(F)F)C(F)(F)F)NC1=NC(C(F)(F)F)(C(F)(F)F)N=C(C(F)(F)F)O1` (stereo unspecified), for which the TGI in the experiment on SF-268 CNS is more than 100 µM; with RXF 393 renal, 93.8 µM; in the experiment with KM12 colon, more than 100 µM; in the experiment with SW-620 colon, more than 100 µM; in the experiment on K-562 leukemia, more than 100 µM; with HL-60(TB) leukemia it was 45.8 µM. Further, the TGI in the experiment on HCT-15 colon is more than 100 µM; in the experiment with MDA-MB-435 it was more than 100 µM; in the experiment on SNB-75 CNS, 27.2 µM.
Consider `Cc1cc2c(cc1Cl)S(=O)(=O)OC(c1ccc([N+](=O)[O-])cc1)=N2`, for which the TGI with SF-268 CNS, in the experiment on RXF 393 renal, with KM12 colon, in the experiment with SW-620 colon, in the experiment on K-562 leukemia and with HL-60(TB) leukemia was more than 100 µM each time. The TGI with HCT-15 colon, with MDA-MB-435 and in the experiment with SNB-75 CNS was more than 100 µM each time.
As to `Clc1cc(Cl)cc(C=NC23CC4CC(CC(C4)C2)C3)c1`, the TGI in the experiment on SF-268 CNS, in the experiment with RXF 393 renal, in the experiment with KM12 colon, in the experiment on SW-620 colon, in the experiment with K-562 leukemia and in the experiment on HL-60(TB) leukemia was more than 10 µM throughout. For the same compound, the TGI with HCT-15 colon, in the experiment with MDA-MB-435 and in the experiment on SNB-75 CNS was more than 10 µM each time.
As for `CC1=NN(c2nc(N)nc(CSc3nc4n(c(=S)n3)CCN4)n2)C(C)(C)C1`, the TGI in the experiment with SF-268 CNS was 35.2 µM; in the experiment with RXF 393 renal, 38.7 µM; in the experiment on KM12 colon, more than 100 µM; with SW-620 colon it was more than 100 µM; in the experiment on K-562 leukemia, more than 100 µM; in the experiment on HL-60(TB) leukemia it was more than 100 µM. Also, the TGI in the experiment with HCT-15 colon is more than 100 µM; in the experiment with MDA-MB-435, more than 100 µM; in the experiment on SNB-75 CNS, 39.7 µM.
As to `CC(C)=CCC/C(=C/CC/C(=C\CCc1ccoc1)C(=O)O)C(=O)O`, the TGI with SF-268 CNS, in the experiment with RXF 393 renal, in the experiment with KM12 colon, in the experiment on SW-620 colon, with K-562 leukemia and in the experiment on HL-60(TB) leukemia was more than 100 µM each time. The TGI in the experiment on HCT-15 colon, with MDA-MB-435 and in the experiment on SNB-75 CNS was more than 100 µM each time.
As for `N#Cc1c(-c2ccc([N+](=O)[O-])cc2)c(C#N)c(=O)n(NS(=O)(=O)c2ccccc2)c1-c1ccccc1`, the TGI in the experiment on SF-268 CNS, in the experiment on RXF 393 renal, with KM12 colon, in the experiment on SW-620 colon, with K-562 leukemia and in the experiment on HL-60(TB) leukemia was more than 100 µM each time. For the same compound, the TGI in the experiment on HCT-15 colon, with MDA-MB-435 and in the experiment on SNB-75 CNS was more than 100 µM in each case.
As for `O=S(=O)(O)C(=Nc1cccc(Cc2ccccc2)c1)Nc1cccc(Cc2ccccc2)c1`, the total growth inhibition concentration (TGI) in the experiment on SF-268 CNS was 33.6 µM; with RXF 393 renal, 33.3 µM; with KM12 colon, 31.5 µM; with SW-620 colon it was 52.1 µM; with K-562 leukemia it was more than 100 µM; in the experiment with HL-60(TB) leukemia it was 95.7 µM. The TGI is 35.2 µM with HCT-15 colon, 40.6 µM in the experiment on MDA-MB-435 and 30.6 µM in the experiment on SNB-75 CNS.
On to `CC(=O)O[C@H]1[C@@H]2OC(=O)[C@@](O)(CC3CCCO3)[C@@H]2CC(=O)[C@](C)(O)CC/C=C(\C)CCC[C@@H]1C` (stereo partly specified), for which the TGI in the experiment with SF-268 CNS is more than 100 µM; with RXF 393 renal, 35.9 µM; in the experiment on KM12 colon, more than 100 µM; in the experiment on SW-620 colon, 49.2 µM; with K-562 leukemia, 90.9 µM; in the experiment on HL-60(TB) leukemia it was 57.8 µM. The TGI in the experiment on HCT-15 colon, in the experiment on MDA-MB-435 and with SNB-75 CNS was more than 100 µM in each case.
